Tests used:
Type in all cases: in vivo
[1] = system: barnyardgrass (Echinochloa crus-galli); assay: Test A preemergence soil spray, visual injury rating 0-100; details: 10 days
In short: (§1)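 Rating: visual, day 10, untreated plants as reference, 0 no effect to 100 full control. Plants were in loam-sand and were treated either preemergence via directed soil spray or postemergence at the one- to two-leaf stage.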

[2] = system: blackgrass (Alopecurus myosuroides); assay: as above; details: 10 days
In short: as §1

corn (Zea mays) [3] = assay: as above; details: 10 days
In short: as §1

[4] = system: green foxtail (Setaria viridis); assay: as above; details: 10 days
In short: as §1

kochia (Bassia scoparia) [5] = assay: as above; details: 10 days
In short: as §1

[6] = system: oat, wild (wild oat, Avena fatua); assay: as above; details: 10 days
In short: as §1

[7] = system: ragweed (common ragweed, Ambrosia artemisiifolia); assay: as above; details: 10 days
In short: as §1

[8] = system: ryegrass, Italian (italian ryegrass, Lolium multiflorum); assay: as above; details: 10 days
In short: as §1

soybean (Glycine max) [9] = assay: as above; details: 10 days
In short: as §1

[10] = system: wheat (Triticum aestivum); assay: as above; details: 10 days
In short: as §1

[11] = system: barnyardgrass (Echinochloa crus-galli); assay: Test A postemergence application, visual injury rating 0-100
In short: as §1

[12] = system: blackgrass (Alopecurus myosuroides); assay: as above
In short: as §1

corn (Zea mays) [13] = assay: as above
In short: as §1

[14] = system: galium (catchweed bedstraw, Galium aparine); assay: as above
In short: as §1

[15] = system: green foxtail (Setaria viridis); assay: as above
In short: as §1

[16] = system: horseweed (Erigeron canadensis); assay: as above
In short: as §1

kochia (Bassia scoparia) [17] = assay: as above
In short: as §1

[18] = system: oat, wild (wild oat, Avena fatua); assay: as above
In short: as §1

[19] = system: palmer (palmer amaranth, palmer pigweed, Amaranthus palmeri); assay: as above
In short: as §1

[20] = system: ragweed (common ragweed, Ambrosia artemisiifolia); assay: as above
In short: as §1

[21] = system: ryegrass, Italian (italian ryegrass, Lolium multiflorum); assay: as above
In short: as §1

soybean (Glycine max) [22] = assay: as above
In short: as §1

[23] = system: wheat (Triticum aestivum); assay: as above
In short: as §1

[24] = system: barnyardgrass (Echinochloa crusgalli); assay: Test B flooded paddy test, visual plant response rating 0-100; details: 250 g ai/ha, Flood, applied to paddy water, evaluated after 13 days
In short: (§2)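 Treatment occurs at the 2-leaf stage by adding compound to floodwater standing 3 cm above the soil, a level kept for the whole test. Plants stay in the greenhouse 13 days before visual comparison with controls.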

[25] = system: ducksalad (Heteranthera limosa); assay: as above; details: 250 g ai/ha, Flood, applied to paddy water, evaluated after 13 days
In short: as §2

rice (Oryza sativa) = assay: as above; details: 250 g ai/ha, Flood, applied to paddy water, evaluated after 13 days
In short: as §2

[26] = system: sedge, umbrella (small-flower umbrella sedge, Cyperus difformis); assay: as above; details: 250 g ai/ha, Flood, applied to paddy water, evaluated after 13 days
In short: as §2

[27] = 62 g ai/ha, 0 = no effect, 100 = complete control
[28] = 62 g ai/ha, postemergence, 10 days, 0 = no effect, 100 = complete control
[29] = Postemergence, 16 g ai/ha, greenhouse 10 days, 0 no effect, 100 complete control

CCOC(=O)C1=CCC(NC(=O)C2(C)CN(c3cc(F)cc(Cl)c3)C(=O)O2)C1 (centres unmarked) [Compound 134]
0: Barnyardgrass plant response rating ([1]; 16 g ai/ha, 0 to 100 scale) | Barnyardgrass plant response rating (0-100) [1, 27] | Blackgrass plant response rating ([2]; 16 g ai/ha, 0 to 100 scale) | Corn plant response rating (corn (Zea mays) [3]; 16 g ai/ha, 0 to 100 scale) | Corn plant response rating (0-100) (corn (Zea mays) [3]; [27]) | Foxtail, Green plant response rating ([4]; 16 g ai/ha, 0 to 100 scale) | Foxtail, Green plant response rating (0-100) [4, 27] | Kochia plant response rating (kochia (Bassia scoparia) [5]; 16 g ai/ha, 0 to 100 scale) | Kochia plant response rating (0-100) (kochia (Bassia scoparia) [5]; [27]) | Oat, Wild plant response rating ([6]; 16 g ai/ha, 0 to 100 scale) | Oat, Wild plant response rating (0-100) [6, 27] | Ragweed plant response rating ([7]; 16 g ai/ha, 0 to 100 scale) | Ragweed plant response rating (0-100) [7, 27] | Ryegrass, Italian plant response rating ([8]; 16 g ai/ha, 0 to 100 scale) | Ryegrass, Italian plant response rating (0-100) [8, 27] | Soybean plant response rating (soybean (Glycine max) [9]; 16 g ai/ha, 0 to 100 scale) | Soybean plant response rating (0-100) (soybean (Glycine max) [9]; [27]) | Wheat plant response rating ([10]; 16 g ai/ha, 0 to 100 scale) | Wheat plant response rating (0-100) [10, 27] | Barnyardgrass plant response rating (0-100) [11, 28] | Barnyardgrass plant response rating (0 to 100 scale) [11, 29] | Blackgrass plant response rating (0-100) [12, 28] | Blackgrass plant response rating (0 to 100 scale) [12, 29] | Corn plant response rating (0-100) (corn (Zea mays) [13]; [28]) | Corn plant response rating (0 to 100 scale) (corn (Zea mays) [13]; [29]) | Galium plant response rating (0-100) [14, 28] | Galium plant response rating (0 to 100 scale) [14, 29] | Foxtail, Green plant response rating (0-100) [15, 28] | Foxtail, Green plant response rating (0 to 100 scale) [15, 29] | Horseweed plant response rating (0-100) [16, 28] | Horseweed plant response rating (0 to 100 scale) [16, 29] | Kochia plant response rating (0-100) (kochia (Bassia scoparia) [17]; [28]) | Kochia plant response rating (0 to 100 scale) (kochia (Bassia scoparia) [17]; [29]) | Oat, Wild plant response rating (0-100) [18, 28] | Oat, Wild plant response rating (0 to 100 scale) [18, 29] | Pigweed, Palmer plant response rating (0-100) [19, 28] | Pigweed, Palmer plant response rating (0 to 100 scale) [19, 29] | Ragweed plant response rating (0-100) [20, 28] | Ragweed plant response rating (0 to 100 scale) [20, 29] | Ryegrass, Italian plant response rating (0-100) [21, 28] | Ryegrass, Italian plant response rating (0 to 100 scale) [21, 29] | Soybean plant response rating (0-100) (soybean (Glycine max) [22]; [28]) | Soybean plant response rating (0 to 100 scale) (soybean (Glycine max) [22]; [29]) | Wheat plant response rating (0-100) [23, 28] | Wheat plant response rating (0 to 100 scale) [23, 29] | Plant response rating, Barnyardgrass (0 to 100 scale, 0 is no effect and 100 is complete control) [24] | Plant response rating, Ducksalad (0 to 100 scale, 0 is no effect and 100 is complete control) [25] | Plant response rating, Rice (0 to 100 scale, 0 is no effect and 100 is complete control) (rice (Oryza sativa)) | Plant response rating, Sedge, Umbrella (0 to 100 scale, 0 is no effect and 100 is complete control) [26]
30: Blackgrass plant response rating (0-100) [2, 27]

Reference: US20260285850A1, “SUBSTITUTED OXAZOLIDINONES AND IMIDAZOLINONES AS HERBICIDES” (FMC CORPORATION, priority 2023, published 2026)
